Like-named read-outs stand apart in the source and are kept apart here.
How the values were obtained:
[1] = TPM cytotoxicity of cigarette smoke
[2] = Gas vapor phase (GVP) toxicity
Excerpt: Additionally, a control filler was sprayed with 20 g of deionized H2O. Next, the sprayed fillers were dried, conditioned and processed into handmade cigarettes.

[3] = TPM mutagenicity of cigarette smoke
[4] = Table 1, filler additive 10.8% NH4OAc or 6.3% Co(NH3)6Cl3, vs water-sprayed control
[5] = Table 4, NH4OAc alone: filler treatment scaled up to 300 g/batch

CC(=O)[O-].CC(=O)[O-].CC(=O)[O-].N.N.N.N.N.N.[Co+3] [Co(NH3)6(OAc)3, hexammine cobalt (III) acetate]
Cytotoxicity, change (TPM) [1]: −24% | TPM and GVP toxicity of cigarette smoke (in words) [1]: significant reduction | GVP Toxicity, change ([2]; Table 5, Co 1.3%, NH3 2.4%, glycerin 10% where present, vs water-sprayed control): −42%

N.N.N.N.N.N.[Cl-].[Cl-].[Cl-].[Co+3] [Co(NH3)6Cl3, hexammine cobalt (III) chloride]
Cytotoxicity, change (MS TPM) [1]: −34%

CC(=O)O.N [NH4OAc, ammonium acetate]
Cytotoxicity, change (MS TPM) [1, 4]: −33% | Cytotoxicity, change (TPM) [1, 5]: −26% | reduction in GVP toxicity ([2]; Table 3): 29% | GVP Toxicity, change ([2]; Table 3, change from control): −29% | Mutagenicity, change (MS TPM) [3, 4]: −11% | Mutagenicity, change (TPM) [3, 5]: 9%
